Test results: patent US20250115576A1, “THERAPEUTIC COMPOUNDS AND METHODS OF USE THEREOF” (Genentech, Inc., priority 2018, published 2025)
Counter-ions that a name gives are not always drawn.

Experiments:
hNav1.7 [1] = biological target: T1, hNav1.7 (Homo sapiens (Human), UniProt Q15858); assay: Tritiated compound binding to membranes from cells expressing hNav1.7 and the β1 subunit (Nav1.7 LBA); conditions: competitive binding vs [3H]compound, membranes with hNav1.7 and β1 subunit; read-out: Nav1.7 LBA EVO IC50
Protocol: Example 64a. Tritiated Compound Binding to Membranes Isolated from Cells that Heterologously Express hNav1.7 and the β 1 Subunit
Preparation of membranes containing recombinantly expressed sodium channels: Frozen recombinant cell pellets are thawed on ice and diluted to 4 times the cell pellet weight with ice cold 50 mM Tris HCl, pH 7.4 buffer. The cell suspensions are homogenized on ice using a motorized glass dounce homogeniser. Homogenates are further diluted 8.4 times with ice cold 50 mM Tris HCl, pH 7.4 buffer and then centrifuged at 200×g at 4° C. for 15 minutes. The supernatants are collected and centrifuged at 10000×g at 4° C. for 50 min. The pellets are then re-suspended in 100 mM NaCl, 20 mM Tris HCl, pH 7.4 buffer containing 1% v/v protease inhibitors (Calbiochem) and re-homogenized on ice. The homogenized membranes are then processed through a syringe equipped with a 26 gauge needle. Protein concentrations arer determined by Bradford Assay and the membranes are stored at −80° C.
Radioligand Binding Studies: Saturation experiments. A competitive NaV1.7 inhibitor having a methyl group is tritiated. Three tritiums are incorporated in place of methyl hydrogens to generate [^3H]compound. Binding of this radioligand is performed in 5 mL borosilicate glass test tubes at room temperature. Binding is initiated by adding membranes to increasing concentrations of [^3H]compound in 100 mM NaCl, 20 mM Tris HCl, pH 7.4 buffer containing 0.01% w/v bovine serum albumin (BSA) for 18 h. Non-specific binding is determined in the presence of 1 μM unlabeled compound. After 18 h, the reactants are filtered through GF/C glass fiber filters presoaked in 0.5% w/v polyethylene imine. […] [^3H]compound bound to filters is quantified by liquid scintillation counting.
Competitive binding experiments: Binding reactions are performed in 96-well polypropylene plates at room temperature for 18 h. […] Bound radioactivity is determined by liquid scintillation counting.
Data Analysis: For saturation experiments, non-specific binding is subtracted from total binding to provide specific binding and these values are recalculated in terms of pmol ligand bound per mg protein. Saturation curves are constructed and dissociation constants are calculated using the single site ligand binding model: Beq=(Bmax*X)/(X+Kd), where Beq is the amount of ligand bound at equilibrium, Bmax is the maximum receptor density, Kd is the dissociation constant for the ligand, and X is the free ligand concentration. For competition studies percent inhibition is determined and IC50 values are calculated using a 4 parameter logistic model (% inhibition=(A+((B−A)/(1+((x/C)^D)))) using XLfit, where A and B are the maximal and minimum inhibition respectively, C is the IC50 concentration and D is the (Hill) slope. […]
Target sequence in this assay (Q15858 whole entry, looked up): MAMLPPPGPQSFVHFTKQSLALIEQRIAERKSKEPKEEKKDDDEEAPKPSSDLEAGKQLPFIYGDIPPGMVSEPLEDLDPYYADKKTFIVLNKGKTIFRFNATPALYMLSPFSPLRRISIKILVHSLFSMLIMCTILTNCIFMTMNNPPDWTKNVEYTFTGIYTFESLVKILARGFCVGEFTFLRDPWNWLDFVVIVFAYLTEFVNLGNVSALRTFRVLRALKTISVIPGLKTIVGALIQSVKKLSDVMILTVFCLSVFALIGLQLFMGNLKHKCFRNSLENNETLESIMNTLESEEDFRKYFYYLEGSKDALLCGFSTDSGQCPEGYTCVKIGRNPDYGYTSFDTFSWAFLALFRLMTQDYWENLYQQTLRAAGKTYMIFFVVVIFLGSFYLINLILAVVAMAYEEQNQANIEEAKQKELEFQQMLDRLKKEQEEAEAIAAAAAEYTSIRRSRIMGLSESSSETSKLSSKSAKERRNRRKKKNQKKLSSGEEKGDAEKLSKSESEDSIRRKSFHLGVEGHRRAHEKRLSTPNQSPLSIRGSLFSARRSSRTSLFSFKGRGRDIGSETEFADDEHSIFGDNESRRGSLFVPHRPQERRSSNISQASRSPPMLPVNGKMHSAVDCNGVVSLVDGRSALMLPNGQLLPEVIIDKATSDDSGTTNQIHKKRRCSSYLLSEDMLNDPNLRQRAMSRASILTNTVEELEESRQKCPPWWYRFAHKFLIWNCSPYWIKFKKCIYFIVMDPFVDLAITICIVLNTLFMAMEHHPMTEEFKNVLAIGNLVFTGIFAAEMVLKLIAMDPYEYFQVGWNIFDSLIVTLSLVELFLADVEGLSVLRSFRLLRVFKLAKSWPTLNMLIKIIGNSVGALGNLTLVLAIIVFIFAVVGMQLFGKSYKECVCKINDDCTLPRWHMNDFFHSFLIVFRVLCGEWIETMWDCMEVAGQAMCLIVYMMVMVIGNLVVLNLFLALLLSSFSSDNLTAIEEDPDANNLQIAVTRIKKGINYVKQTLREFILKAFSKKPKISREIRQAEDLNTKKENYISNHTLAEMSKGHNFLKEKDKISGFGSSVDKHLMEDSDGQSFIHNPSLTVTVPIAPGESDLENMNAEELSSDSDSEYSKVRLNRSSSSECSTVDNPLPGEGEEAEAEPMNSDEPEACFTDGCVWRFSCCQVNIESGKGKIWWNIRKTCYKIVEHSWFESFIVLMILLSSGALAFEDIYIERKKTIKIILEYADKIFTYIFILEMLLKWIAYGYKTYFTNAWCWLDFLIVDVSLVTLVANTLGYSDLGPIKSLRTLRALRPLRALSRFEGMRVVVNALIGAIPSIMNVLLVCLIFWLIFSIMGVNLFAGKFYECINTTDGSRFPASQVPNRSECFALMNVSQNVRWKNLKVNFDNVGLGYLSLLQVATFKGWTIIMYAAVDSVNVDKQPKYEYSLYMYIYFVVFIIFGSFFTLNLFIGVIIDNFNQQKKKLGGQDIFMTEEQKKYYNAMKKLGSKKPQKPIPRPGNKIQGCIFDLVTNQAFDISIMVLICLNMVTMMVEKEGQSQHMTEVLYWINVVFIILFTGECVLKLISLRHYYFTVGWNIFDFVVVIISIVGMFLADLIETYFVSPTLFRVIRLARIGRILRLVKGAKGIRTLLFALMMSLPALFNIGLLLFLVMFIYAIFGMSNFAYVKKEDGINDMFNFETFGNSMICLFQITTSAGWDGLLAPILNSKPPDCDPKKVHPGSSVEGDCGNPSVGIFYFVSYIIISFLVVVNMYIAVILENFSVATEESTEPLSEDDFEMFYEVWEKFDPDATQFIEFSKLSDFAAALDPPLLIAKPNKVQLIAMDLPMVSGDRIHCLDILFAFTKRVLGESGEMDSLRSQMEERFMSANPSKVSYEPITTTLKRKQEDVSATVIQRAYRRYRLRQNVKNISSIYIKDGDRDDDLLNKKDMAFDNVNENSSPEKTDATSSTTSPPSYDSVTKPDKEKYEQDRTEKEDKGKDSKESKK
Target sequence in this assay (Q07699 whole entry partner, looked up): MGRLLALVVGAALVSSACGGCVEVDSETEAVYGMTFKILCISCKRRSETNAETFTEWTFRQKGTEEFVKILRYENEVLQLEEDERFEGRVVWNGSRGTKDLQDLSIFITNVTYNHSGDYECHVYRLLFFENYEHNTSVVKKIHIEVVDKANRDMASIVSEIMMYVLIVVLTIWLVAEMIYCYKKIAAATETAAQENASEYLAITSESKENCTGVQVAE

hNav1.7 [2] = biological target: T1, hNav1.7; assay: Patch voltage clamp electrophysiology (EP), Syncropatch 384PE, CHO cells stably expressing Nav1.7; type: cell-based; conditions: holding potential −50 mV, 7.5 min compound incubation, read-out: EP_SP hNav1.7 EVO IC50
Description: Example 64c. Electrophysiological Assay (EP) (In Vitro Assay)
Patch voltage clamp electrophysiology allows for the direct measurement and quantification of block of voltage-gated sodium channels (NaV's), and allows the determination of the time- and voltage-dependence of block which has been interpreted as differential binding to the resting, open, and inactivated states of the sodium channel (Hille, B., Journal of General Physiology (1977), 69: 497-515).
The following voltage clamp electrophysiology studies are performed on representative compounds using cells heterologously expressing Nav1.7 or Nav1.5 channels. cDNAs for Nav1.7 (NM_002977) and Nav1.5 (AC137587) are stably expressed in Chinese Hamstr Ovary (CHO) cells and CHL (Chinese Hamster Lung) cells respectively. Sodium currents are measured in the whole-cell configuration using Syncropatch 384PE (Nanlon Technologies, Germany). 1NPC®-384 chips with custom medium resistance and single hole mode are used. Internal solution consists of (in mM): […], 10 CsCl, 20 EGTA, and 10 Hepes (pH adjusted to 7.2); and external solution contains (in mM): 60 NMDG, 80 NaCl, 4 KCl, 1 MgCl2, 2 CaCl2, 2 D-Glucose monohydrate, 10 Hepes (pH adjusted to 7.4 with NaOH).
After system flushing, testing compounds are dissolved in external solution containing 0.1% Pluronic F-127. The chip is moved into the measuring head and the instrument primes the chip with external and internal solutions. 10 μl cells are added to the chip from a cell hotel, and a negative pressure of −50 mBar is applied to form a seal. Following treatment with seal enhancer solution and wash-off with external solution, negative pressure of −250 mbar is applied for 1 second to achieve the whole-cell configuration, followed by three washing steps in external solution. 20 μl of compounds is added to 40 μl in each well (1:3 dilution of compounds), and after mixing, 20 μl is removed so the volume is retained at 40 ul. After approximately 13 minutes recordings, 20 μl/well of 2 uM TTX, or 333 uM Tetracaine (for […]) is added to achieve full block.
For voltage protocol, an holding potential of −50 mV is applied during the whole experiment. A depolarizing step is applied to −10 mV for 10 ms, followed by a hyperpolarization step to −150 mV for 20 ms to allow channel recovery from inactivation. A second depolarizing step is applied from −150 mV to −10 mV for 10 ms, where currents are measured to derive blocking effects of compounds. Inhibition is determined based on 7.5 min of compound incubation.
Target sequence in this assay (Q15858 other isoform, or with tags, fused parts or gaps): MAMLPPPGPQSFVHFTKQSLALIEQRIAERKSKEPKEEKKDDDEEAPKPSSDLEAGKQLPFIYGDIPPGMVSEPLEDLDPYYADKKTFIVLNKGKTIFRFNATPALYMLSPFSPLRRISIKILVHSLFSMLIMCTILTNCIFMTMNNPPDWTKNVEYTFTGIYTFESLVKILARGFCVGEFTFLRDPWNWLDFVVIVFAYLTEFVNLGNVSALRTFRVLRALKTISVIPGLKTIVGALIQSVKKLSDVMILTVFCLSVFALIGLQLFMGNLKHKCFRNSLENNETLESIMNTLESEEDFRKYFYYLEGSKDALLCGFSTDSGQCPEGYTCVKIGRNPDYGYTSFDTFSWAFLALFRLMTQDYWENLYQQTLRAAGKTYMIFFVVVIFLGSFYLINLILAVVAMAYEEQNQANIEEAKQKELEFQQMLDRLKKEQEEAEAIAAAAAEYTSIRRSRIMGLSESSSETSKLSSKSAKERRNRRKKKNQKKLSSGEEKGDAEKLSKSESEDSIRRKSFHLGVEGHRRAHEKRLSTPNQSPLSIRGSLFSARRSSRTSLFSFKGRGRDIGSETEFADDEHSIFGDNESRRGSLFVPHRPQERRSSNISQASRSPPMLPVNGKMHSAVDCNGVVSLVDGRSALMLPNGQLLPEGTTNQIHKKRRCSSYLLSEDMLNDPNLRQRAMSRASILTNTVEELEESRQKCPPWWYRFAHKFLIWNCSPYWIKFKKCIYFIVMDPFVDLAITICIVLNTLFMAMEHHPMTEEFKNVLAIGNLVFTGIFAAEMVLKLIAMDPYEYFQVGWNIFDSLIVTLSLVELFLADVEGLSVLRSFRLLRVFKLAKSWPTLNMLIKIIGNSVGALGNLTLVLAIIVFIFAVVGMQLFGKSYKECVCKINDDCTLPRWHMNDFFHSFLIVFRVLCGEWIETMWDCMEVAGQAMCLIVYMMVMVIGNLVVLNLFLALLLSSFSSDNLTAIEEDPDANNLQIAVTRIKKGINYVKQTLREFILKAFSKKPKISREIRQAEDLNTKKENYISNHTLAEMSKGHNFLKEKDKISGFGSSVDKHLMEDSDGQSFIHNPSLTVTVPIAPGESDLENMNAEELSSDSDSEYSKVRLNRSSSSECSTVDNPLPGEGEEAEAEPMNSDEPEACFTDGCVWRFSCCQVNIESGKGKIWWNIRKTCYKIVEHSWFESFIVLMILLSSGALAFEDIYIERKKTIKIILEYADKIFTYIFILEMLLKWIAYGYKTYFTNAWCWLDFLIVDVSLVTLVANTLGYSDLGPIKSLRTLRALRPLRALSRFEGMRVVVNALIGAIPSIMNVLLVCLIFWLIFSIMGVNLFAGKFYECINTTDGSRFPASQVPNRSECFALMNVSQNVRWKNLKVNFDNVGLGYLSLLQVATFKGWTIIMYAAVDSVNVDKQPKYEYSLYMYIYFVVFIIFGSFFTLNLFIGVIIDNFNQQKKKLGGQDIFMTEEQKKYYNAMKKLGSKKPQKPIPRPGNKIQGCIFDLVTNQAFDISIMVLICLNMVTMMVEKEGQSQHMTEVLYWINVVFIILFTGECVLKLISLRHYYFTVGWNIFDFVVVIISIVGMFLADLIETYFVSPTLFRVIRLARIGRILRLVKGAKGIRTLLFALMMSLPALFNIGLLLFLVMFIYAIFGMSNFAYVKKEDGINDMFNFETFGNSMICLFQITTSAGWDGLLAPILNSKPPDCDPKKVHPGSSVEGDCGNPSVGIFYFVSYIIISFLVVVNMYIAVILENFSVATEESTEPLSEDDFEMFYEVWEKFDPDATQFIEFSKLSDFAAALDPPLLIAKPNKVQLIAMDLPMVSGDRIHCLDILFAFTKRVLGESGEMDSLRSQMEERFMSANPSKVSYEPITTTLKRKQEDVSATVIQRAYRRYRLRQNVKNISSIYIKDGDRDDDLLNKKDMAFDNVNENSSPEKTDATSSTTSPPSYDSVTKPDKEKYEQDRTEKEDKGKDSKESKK

Row | Compound | IC50 (hNav1.7 [1]) [nM] | IC50 (hNav1.7 [2]) [nM]
1 | 5-Chloro-6-(((1S,2S,4S)-4-(3-chlorophenyl)-2-(dimethylamino)cyclohexyl)oxy)-N-(pyrimidin-4-yl)pyridine-3-sulfonamide [Example 27] | 7.12 | 0.574
2 | 6-(((1S,2S,4S)-4-(3-(1,1-difluoroethyl)phenyl)-2-(dimethylamino)cyclohexyl)oxy)-2-methyl-N-(pyrimidin-4-yl)pyridine-3-sulfonamide [Example 41] | 1.9 | 1.95
3 | CN(C)[C@H]1C[C@@H](c2cccc(C(F)(F)F)c2)CC[C@@H]1Nc1ccc(S(=O)(=O)Nc2ccncn2)cn1 (racemic) [Example 2, 6-(((1S,2S,4S)-2-(Dimethylamino)-4-(3-(trifluoromethyl)phenyl)cyclohexyl)amino)-N-(pyrimidin-4-yl)pyridine-3-sulfonamide] | 9.17 | 0.427
4 | Cc1nc(O[C@H]2CC[C@H](c3cccc(C(F)(F)F)n3)C[C@@H]2N(C)C)ccc1S(=O)(=O)Nc1ccncn1 [Example 51, 6-(((1S,2S,4S)-2-(dimethylamino)-4-(6-(trifluoromethyl)pyridin-2-yl)cyclohexyl)oxy)-2-methyl-N-(pyrimidin-4-yl)pyridine-3-sulfonamide] | 0.985 | 4.59
5 | Cc1nc(O[C@H]2CC[C@H](c3cccc(OC(F)F)c3)C[C@@H]2N(C)C)ccc1S(=O)(=O)Nc1ccncn1 [Example 52, 6-(((1S,2S,4S)-4-(3-(difluoromethoxy)phenyl)-2-(dimethylamino)cyclohexyl)oxy)-2-methyl-N-(pyrimidin-4-yl)pyridine-3-sulfonamide] |  | 1.82
6 | Cc1nc(O[C@H]2CC[C@H](c3cccc(C(F)(F)F)c3)C[C@@H]2N(C)C)c(F)cc1S(=O)(=O)Nc1ccncn1 [Example 53, 6-(((1S,2S,4S)-2-(Dimethylamino)-4-(3-(trifluoromethyl)phenyl)cyclohexyl)oxy)-5-fluoro-2-methyl-N-(pyrimidin-4-yl)pyridine-3-sulfonamide formate] |  | 0.989
7 | Cc1ccc(C(F)(F)F)cc1[C@H]1CC[C@H](Oc2ccc(S(=O)(=O)Nc3ccncn3)c(C)n2)[C@@H](N(C)C)C1 [Example 54, 6-(((1S,2S,4S)-2-(dimethyl-amino)-4-(2-methyl-5-(trifluoromethyl)phenyl)-cyclohexyl)oxy)-2-methyl-N-(pyrimidin-4-yl)pyridine-3-sulfonamide] |  | 0.404
8 | Cc1nc(O[C@H]2CC[C@H](c3cccc(C(F)(F)F)c3)C[C@@H]2N2CCOCC2)ccc1S(=O)(=O)Nc1ccncn1 [Example 55, 2-methyl-6-(((1S,2S,4S)-2-morpholino-4-(3-(trifluoro-methyl)phenyl)cyclohexyl)-oxy)-N-(pyrimidin-4-yl)pyridine-3-sulfonamide] |  | 0.527
9 | Cc1ccc([C@H]2CC[C@H](Oc3ccc(S(=O)(=O)Nc4ccncn4)c(C)n3)[C@@H](N(C)C)C2)cc1C(F)(F)F [Example 56, 6-(((1S,2S,4S)-2-(dimethyl-amino)-4-(4-methyl-3-(trifluoromethyl)phenyl)-cyclohexyl)oxy)-2-methyl-N-(pyrimidin-4-yl)pyridine-3-sulfonamide formate] |  | 0.13
10 | Cc1nc(O[C@H]2CC[C@H](c3cccc(Cl)c3)C[C@@H]2N(C)C)ccc1S(=O)(=O)Nc1ccncn1 [Example 57, 6-(((1S,2S,4S)-4-(3-chloro-phenyl)-2-(dimethylamino)-cyclohexyl)oxy)-2-methyl-N-(pyrimidin-4-yl)pyridine-3-sulfonamide] |  | 0.919
11 | Cc1cc([C@H]2CC[C@H](Oc3ccc(S(=O)(=O)Nc4ccncn4)c(C)n3)[C@@H](N(C)C)C2)cc(C(F)(F)F)c1 [Example 58, 6-(((1S,2S,4S)-2-(dimethyl-amino)-4-(3-methyl-5-(trifluoromethyl)phenyl)-cyclohexyl)oxy)-2-methyl-N-(pyrimidin-4-yl)pyridine-3-sulfonamide] |  | 0.351
12 | Cc1nc(O[C@H]2CC[C@H](c3cccc(CC(F)(F)F)c3)C[C@@H]2N(C)C)ccc1S(=O)(=O)Nc1ccncn1 [Example 59, 6-(((1S,2S,4S)-2-(dimethyl-amino)-4-(3-(2,2,2-trifluoro-ethyl)phenyl)-cyclohexyl)-oxy)-2-methyl-N-(pyrimidin-4-yl)pyridine-3-sulfonamide] |  | 0.942
13 | Cc1nc(O[C@H]2CC[C@H](c3cccc(C(F)(F)F)c3C)C[C@@H]2N(C)C)ccc1S(=O)(=O)Nc1ccncn1 [Example 60, 6-(((1S,2S,4S)-2-(dimethyl-amino)-4-(2-methyl-3-(trifluoromethyl)phenyl)-cyclohexyl)oxy)-2-methyl-N-(pyrimidin-4-yl)pyridine-3-sulfonamide] |  | 0.909
14 | COc1cc(S(=O)(=O)Nc2ccncn2)cnc1O[C@H]1CC[C@H](c2cccc(C(F)(F)F)c2)C[C@@H]1N(C)C [Example 61, 6-(((1S,2S,4S)-2-(dimethyl-amino)-4-(3-(trifluoromethyl)-phenyl)cyclohexyl)oxy)-5-methoxy-N-(pyrimidin-4-yl)pyridine-3-sulfonamide formate] |  | 10.7
15 | Cc1nc(O[C@H]2CC[C@H](c3ccc(Cl)c(C(F)(F)F)n3)C[C@@H]2N(C)C)ccc1S(=O)(=O)Nc1ccncn1 [Example 62, 6-(((1S,2S,4S)-4-(5-chloro-6-(trifluoromethyl)pyridin-2-yl)-2-(dimethylamino)-cyclohexyl)oxy)-2-methyl-N-(pyrimidin-4-yl)pyridine-3-sulfonamide] |  | 1.53
16 | CN(C)[C@H]1C[C@@H](c2cccc(SC(F)(F)F)c2)CC[C@@H]1Oc1ccc(S(=O)(=O)Nc2ccncn2)cn1 [Example 63, 6-(((1S,2S,4S)-2-(dimethy-lamino)-4-(3-((trifluoro-methyl)thio)phenyl)cyclohexyl)oxy)-N-(pyrimidin-4-yl) pyridine-3-sulfonamide] |  | 1.05
